One assay has as its system IMR32. Briefly: 86Rb ion-flux assay, IMR32 positive control cells. The format is cell-based, human.
In another assay the test system is PC12. Briefly: 86Rb ion-flux assay, PC12 positive control cells. The format is cell-based.
Assay [1] deals with T1, human neuronal nicotinic AChR α3 and β4 subunits (Homo sapiens, UniProt P30926+P32297).
T1 construct: expressed in transfected cells; host or cells: Xenopus oocytes injected with in vitro transcripts
Briefly: Two-electrode voltage clamp of Xenopus oocytes injected with α3 and β4 transcripts. The format is cell-based.

The target of assay [2] is T2, human neuronal nicotinic AChR α3 subunit (Homo sapiens, UniProt P32297).
T2 construct: expressed in transfected cells; host or cells: Xenopus oocytes injected with in vitro transcript
In words: Two-electrode voltage clamp of Xenopus oocytes injected with α3 transcript alone. In kind it is cell-based. Background: In two-electrode clamp one electrode senses voltage and the other passes current.

Assay [3] has as its target T3, human neuronal nicotinic AChR β4 subunit (Homo sapiens, UniProt P30926).
T3 construct: expressed in transfected cells; host or cells: Xenopus oocytes injected with in vitro transcript (KEβ4.6/pGEM or pCMV-KEβ4)
Briefly: Two-electrode voltage clamp of Xenopus oocytes injected with β4 transcript alone. The format is cell-based.

Assay [4] has as its target human neuronal nicotinic AChR α7 subunit (Homo sapiens, UniProt P36544). The format is cell-based.
Another assay concerns the target human α3β2α5 nAChR (Homo sapiens, UniProt P17787+P30532+P32297, D398N). The format is cell-based.
Assay [5] deals with T1, human neuronal nicotinic AChR α3 and β4 subunits. The format is cell-based.
The target of assay [6] is human neuronal nicotinic AChR α3 and β2 subunits (Homo sapiens, UniProt P17787+P32297). The format is cell-based.
human neuronal nicotinic AChR α3 and β2 subunits, sequence (P17787 26-502, one chain of several): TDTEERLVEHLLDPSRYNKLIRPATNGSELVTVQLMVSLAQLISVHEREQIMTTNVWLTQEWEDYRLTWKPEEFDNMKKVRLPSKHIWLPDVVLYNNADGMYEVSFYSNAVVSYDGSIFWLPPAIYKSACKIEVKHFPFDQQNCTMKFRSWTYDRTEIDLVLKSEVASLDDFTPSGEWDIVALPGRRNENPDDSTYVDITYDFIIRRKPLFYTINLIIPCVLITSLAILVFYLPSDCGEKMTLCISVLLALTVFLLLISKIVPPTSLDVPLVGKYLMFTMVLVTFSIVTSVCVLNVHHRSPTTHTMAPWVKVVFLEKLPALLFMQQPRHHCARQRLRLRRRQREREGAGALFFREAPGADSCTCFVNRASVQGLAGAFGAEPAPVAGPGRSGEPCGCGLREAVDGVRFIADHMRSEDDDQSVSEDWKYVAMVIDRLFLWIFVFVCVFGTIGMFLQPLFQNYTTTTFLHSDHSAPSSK
Assay [7] concerns the target T4, human α7 nAChR (Homo sapiens, UniProt P36544). The format is cell-based.
For assay [8], the target named is T4, human α7 nAChR. The format is binding.
Where [9] appears, read: Homo sapiens, IMR-32, IMR32, agonists and antagonists, read-out: EC50.
[10] abbreviates: Rattus norvegicus, PC-12, PC12, agonists and antagonists, read-out: EC50.

Where “and” joins values, the source holds several entries; their conditions need not be identical. Equal values may be shown once. Read-outs that look alike come from different tables or passages of the source.

T3 sequence (P30926 22-498): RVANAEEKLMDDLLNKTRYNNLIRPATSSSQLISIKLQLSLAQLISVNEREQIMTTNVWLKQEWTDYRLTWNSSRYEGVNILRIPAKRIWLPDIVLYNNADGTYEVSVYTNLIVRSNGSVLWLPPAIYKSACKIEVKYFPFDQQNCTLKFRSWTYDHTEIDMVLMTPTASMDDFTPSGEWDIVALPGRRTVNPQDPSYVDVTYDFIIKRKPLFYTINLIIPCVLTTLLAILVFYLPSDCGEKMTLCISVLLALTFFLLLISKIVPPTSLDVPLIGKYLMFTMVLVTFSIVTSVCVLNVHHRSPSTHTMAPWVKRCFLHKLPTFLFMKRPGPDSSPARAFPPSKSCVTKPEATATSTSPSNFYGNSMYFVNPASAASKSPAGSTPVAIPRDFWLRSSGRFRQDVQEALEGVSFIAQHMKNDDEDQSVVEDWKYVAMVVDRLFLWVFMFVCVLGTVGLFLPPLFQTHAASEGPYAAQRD
T4 sequence (P36544 23-502): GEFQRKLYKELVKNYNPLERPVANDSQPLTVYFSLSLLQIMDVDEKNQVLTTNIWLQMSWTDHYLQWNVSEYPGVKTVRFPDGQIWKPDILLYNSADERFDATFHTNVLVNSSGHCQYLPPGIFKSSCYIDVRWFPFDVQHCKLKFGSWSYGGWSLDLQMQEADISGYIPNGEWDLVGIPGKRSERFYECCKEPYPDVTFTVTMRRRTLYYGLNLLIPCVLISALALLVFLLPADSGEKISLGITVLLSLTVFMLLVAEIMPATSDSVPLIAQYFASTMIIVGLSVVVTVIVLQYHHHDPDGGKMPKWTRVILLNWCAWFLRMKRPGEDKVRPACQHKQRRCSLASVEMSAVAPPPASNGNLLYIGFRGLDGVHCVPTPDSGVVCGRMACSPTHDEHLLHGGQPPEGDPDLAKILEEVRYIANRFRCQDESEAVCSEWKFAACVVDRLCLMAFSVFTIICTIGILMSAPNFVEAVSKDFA
human α3β2α5 nAChR, sequence (P32297 32-505): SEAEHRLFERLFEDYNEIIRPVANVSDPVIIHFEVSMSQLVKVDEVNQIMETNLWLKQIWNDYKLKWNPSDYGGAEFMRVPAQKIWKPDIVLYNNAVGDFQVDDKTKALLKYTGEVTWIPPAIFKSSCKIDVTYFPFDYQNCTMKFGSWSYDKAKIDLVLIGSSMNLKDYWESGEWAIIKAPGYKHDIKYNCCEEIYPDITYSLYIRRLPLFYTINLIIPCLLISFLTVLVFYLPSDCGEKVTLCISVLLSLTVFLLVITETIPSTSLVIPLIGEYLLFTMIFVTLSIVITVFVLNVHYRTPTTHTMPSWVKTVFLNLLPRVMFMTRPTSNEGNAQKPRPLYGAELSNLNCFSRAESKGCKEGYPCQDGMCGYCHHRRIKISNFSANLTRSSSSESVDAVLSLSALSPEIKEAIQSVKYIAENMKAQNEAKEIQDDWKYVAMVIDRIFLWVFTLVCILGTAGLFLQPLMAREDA
human α3β2α5 nAChR, sequence (P17787 26-502): as the sequence (P17787 26-502, one chain of several) above
human neuronal nicotinic AChR α7 subunit, sequence (P36544 23-502): as the sequence (P36544 23-502) above

A word on the EC50: it is the concentration needed to bring the measured effect to its halfway point. On to `C[N+](C)(C)CCOC(N)=O.[Cl-]` [CCh, carbamylcholine], for which the values for the Maximum response in the assay on IMR32 and with PC12 were 7.6 X^c and 3.3 X^b, respectively. Further, the EC50 with IMR32 (read-out: EC50) turned out to be 230 µM; in the assay with PC12 (read-out: EC50) it was 35 µM.

As for `CN1[C@@H]2CC[C@H]1C[C@@H](OC(=O)C(CO)c1ccccc1)C2` (stereo partly shown) [atropine], a half-maximal effect in the assay on IMR32 (Homo sapiens, IMR-32) (EC50) was put at 43 µM.

As to `O=c1cccc2n1C[C@@H]1CNC[C@H]2C1` [cytisine], the Maximum response was 10 X^e in the assay on IMR32 and 3.6 X^d in the assay with PC12. Moreover, the EC50 in the assay with IMR32 (Homo sapiens, IMR-32) turned out to be 14 µM; in the assay on PC12 (Rattus norvegicus, PC-12), 57 µM. For the same molecule, the “Number of oocytes responding” value in assay [1] was 3 of 4 and 5 of 5 and 6 of 6. Besides, in assay [1], the “inward currents in response to agonist” value was “detectable inward currents”. Also, the “relative potency of the agonists” value in [1] is “cytisine>ACh>nicotine”. Further, the “response of oocytes to application of agonist” value in assay [2] and in [3] was “did not respond” throughout.

For `COc1cc2c3cc1Oc1cc(ccc1O)C[C@@H]1c4c(cc(OC)c(O)c4Oc4ccc(cc4)C[C@@H]3N(C)CC2)CC[N+]1(C)C` [d-tubocurarine], in assay [4], the “block of the response to ACh” value is “blocked”. On human α3β2α5 nAChR, the “nicotine-stimulated increase in fluorescence in presence of antagonist” value is “not observed”. The EC50 with IMR32 (read-out: EC50) turned out to be 2.5 µM. In assay [1], the “block of the responses to ACh and nicotine” value is reported as “reproducibly blocked”; the “blockage of the response to ACh” value was “complete blockage”; the “reversibility of the inhibition” value is reported as “appeared to be reversible”. The “nicotine-stimulated increase in fluorescence in presence of antagonist” value in [5] was “not observed”. In addition, the “block of the current response to ACh” value in assay [6] was “blocked”. Also, the EC50 in the assay on PC12 (read-out: EC50) came out at 0.81 µM.

With `Clc1ccc(C2CC3CCC2N3)cn1` (stereo not shown) [epibatidine], on human α7 nAChR [7], the “response of individual cells” value is “homogenous manner”.

With `C[N+](C)(C)CCCCCC[N+](C)(C)C` [hexamethonium], the EC50 with IMR32 (Homo sapiens, IMR-32) turned out to be 22 µM.

Regarding `CNC1(C)C2CCC(C2)C1(C)C` (stereo not shown) [mecamylamine], the values for the EC50 with IMR32 (setting [9]) and in the assay with PC12 (setting [10]) were 0.11 µM and 0.42 µM, respectively. In [1], the “block of the responses to ACh, nicotine and cytisine” value is given as “at least partially blocked”.

Consider `CN1CCCC1c1cccnc1` (stereo not shown) [nicotine], for which the “fluorescence (intracellular calcium) after addition of agonist” value (on human α3β2α5 nAChR; in assay [5]) was “increased dramatically” in each case. Besides, the EC50 turned out to be 18 µM in the assay with IMR32 (setting [9]) and 52 µM in the assay with PC12 (setting [10]). Further, the Maximum response with IMR32 (IMR32, at 200 μM nicotine, 3 mM CCh, 100 μM cytisine (footnotes)) was 7.7 X^a; in the assay on PC12 (PC12, at 200 μM nicotine, 300 μM CCh, 1 mM cytisine (footnotes)), 2.1 X^a. Besides, the “Number of oocytes responding” value in assay [1] is 4 of 5 and 3 of 4 and 5 of 5 and 6 of 6; in assay [2], 0 of 8; in assay [3], 0 of 9; in assay [6], 2 of 9 and 0 of 9. Moreover, the “inward currents in response to agonist” value in assay [1] was “detectable inward currents”. Besides, the “response of oocytes to application of agonist” value in [2] and in assay [3] was “did not respond” in each case.

For orientation: IC50 means the concentration that inhibits the measured activity by half. For the molecule α-bungarotoxin, at human α7 nAChR [8], the “[3H]-MLA binding displaced” value is listed as “approximately 65%”. In addition, the 50% inhibitory concentration (IC50) at human α7 nAChR [8] (read-out: IC50, displacement of [3H]-MLA binding) came out at 0.003 µM.

Source of the values: patent US6936457B1 (Merck & Co., Inc., priority 1990, dated 2005).
